Here are results for 28 molecules from patent US20260216294A1, “BETA 2-ADRENERGIC RECEPTOR AGONISTS FOR TREATMENT OR PREVENTION OF MUSCLE WASTING” (ATROGI AB, priority 2023, published 2026).

Assay [1] concerns L6-myotubes. In words: Glucose uptake in differentiated L6-myotubes (Biological Example 2). In kind it is cell-based. The conditions noted are these: for Emax at 10 µM: read-out: Biological example 2 (GU). The method in brief: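 Differentiated L6 myotubes were serum-starved overnight in 0.5% fatty-acid-free BSA and then stimulated with compound or isoprenaline at 1×10^−5 M final. After 1 h 40 min cells were washed and re-dosed in glucose-free medium. Twenty minutes later, uptake of 50 nM ^3H-2-deoxyglucose over 10 min was measured by scintillation counting of NaOH lysates.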

Assay [2] concerns L6-myotubes. In words: Measurement of intracellular cAMP levels in differentiated L6-myotubes (Biological Example 3). In kind it is cell-based. As to conditions: for Emax at 10 µM: 0.25 h. The method in brief: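 Serum-starved differentiated L6 myotubes stimulated 15 min with test compound at 1×10^−5 M final (isoprenaline as reference) in HBSS with 1% BSA, 5 mM HEPES, 1 mM IBMX, pH 7.4. Cells EtOH-extracted, lysed, and intracellular cAMP measured by AlphaScreen.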
In general terms: cAMP levels reflect the balance of adenylyl cyclase and phosphodiesterase activity.

Where [3] appears, read: glucose uptake, compound at 10 μM relative to isoproterenol at 10 μM.
[4] abbreviates: intracellular cAMP, compound at 10 μM relative to isoproterenol at 10 μM.
Where [5] appears, read: glucose uptake in differentiated L6-myotubes, compound at 10 μM, activity relative to isoproterenol at 10 μM.
Where [6] appears, read: intracellular cAMP in differentiated L6-myotubes, compound at 10 μM, activity relative to isoproterenol at 10 μM.

Structures are written as SMILES.

Consider `CCC[C@H]1CCC[C@H]([C@@H](O)c2cncc(F)c2)N1` [Compound 139], for which the Emax at 10 µM in the assay with L6-myotubes [1] (setting [3]) and with L6-myotubes [2] (setting [4]) was under 25% throughout.

In the case of `CC(C)CS(=O)(=O)N[C@H]1CC[C@H](CC(C)(C)NC[C@H](O)c2cncc(F)c2)CC1` [Compound 526], the Emax at 10 µM is 50 to 75% in the assay on L6-myotubes [1] (setting [5]) and under 25% with L6-myotubes [2] (setting [6]).

Regarding `O[C@H](c1cncc(F)c1)[C@H]1CC[C@H](Cc2ccc(Cl)cc2)N1` [Compound 406, (R)-{(2R,5R)-5-[(p-chlorophenyl)methyl]-2-pyrrolidinyl}(5-fluoro-3-pyridyl)methanol], the Emax at 10 µM with L6-myotubes [1] (setting [5]) is over 75%; with L6-myotubes [2] (setting [6]), under 25%.

For `CC(C)(NC[C@H](O)c1cncc(F)c1)[C@H]1CC[C@H](NS(C)(=O)=O)CC1` [Compound 345, (R)-1-(5-fluoro-3-pyridyl)-2-{1-methyl-1-[(1r,4R)-4-(mesylamino)cyclohexyl]ethylamino}-1-ethanol], the Emax at 10 µM was 25 to 50% with L6-myotubes [1] (setting [5]) and under 25% in the assay on L6-myotubes [2] (setting [6]).

On to `CC1(C)C[C@H]([C@@H](O)c2cncc(F)c2)N1` [Compound 217], for which the figures for the Emax at 10 µM with L6-myotubes [1] (setting [5]) and with L6-myotubes [2] (setting [6]) were 25 to 50% and under 25%, respectively.

With `CC(C)(C[C@H]1CC[C@@H](NC(=O)OC(C)(C)C)CC1)NC[C@H](O)c1cccc(C#N)n1` [Compound 414, (1R,4s)-4-{2-[(S)-2-(6-cyano-2-pyridyl)-2-hydroxyethylamino]-2-methylpropyl}cyclohexly 2-methyl-2-propanecarbamate], the Emax at 10 µM was 50 to 75% in the assay on L6-myotubes [1] (setting [5]) and under 25% in the assay on L6-myotubes [2] (setting [6]).

`CCCCNCC(O)c1cc(O)cc(O)c1` (centres unmarked) [Compound 26, 5-[2-(butylamino)-1-hydroxyethyl]resorcinol]: the figures for the Emax at 10 µM in the assay on L6-myotubes [1] (setting [3]) and in the assay with L6-myotubes [2] (setting [4]) were 50 to 75% and under 25%, respectively.

Regarding `CCC[C@H]1CC[C@@H]([C@H](O)c2cccc(F)c2)N1` [Compound 130, (R)-[(2S,5S)-5-propyl-2-pyrrolidinyl](m-fluorophenyl)methanol], the Emax at 10 µM in the assay on L6-myotubes [1] (setting [3]) was 25 to 50%; in the assay with L6-myotubes [2] (setting [4]), under 25%.

Take `CC(C)(C[C@H]1CC[C@H](N)CC1)NC[C@H](O)c1cccc(F)c1` [Compound 371]: the Emax at 10 µM in the assay with L6-myotubes [1] (setting [5]) is over 75%; in the assay with L6-myotubes [2] (setting [6]), under 25%.

Regarding `CO[C@H]1CC[C@H](CC(C)(C)NC[C@H](O)c2cncc(F)c2)CC1` [Compound 250, (R)-2-{1,1-dimethyl-2-[(1r,4R)-4-methoxycyclohexyl]ethylamino}-1-(5-fluoro-3-pyridyl)-1-ethanol], the figures for the Emax at 10 µM in the assay on L6-myotubes [1] (setting [5]) and with L6-myotubes [2] (setting [6]) were 50 to 75% and under 25%, respectively.

On to `CC1(C)C[C@H]([C@@H](O)c2ccccc2F)N1` [Compound 203, (S)-[(R)-4,4-dimethyl-2-azetidinyl](o-fluorophenyl)methanol], for which the results for the Emax at 10 µM with L6-myotubes [1] (setting [5]) and in the assay on L6-myotubes [2] (setting [6]) were 25 to 50% and under 25%, respectively.

With `CC12CC(C1)[C@@H]([C@@H](O)c1cccc(N)c1F)N2` [Compound 242, (S)-{(S)-1-methyl-2-azabicyclo[[2.1.1]]hex-3-yl}(3-amino-2-fluorophenyl)methanol], the values for the Emax at 10 µM with L6-myotubes [1] (setting [5]) and in the assay with L6-myotubes [2] (setting [6]) were 50 to 75% and under 25%, respectively.

As to `Oc1ccc(C(O)CNCCCC2CC2)cc1` (centres unmarked) [Compound 30, 2-(3-cyclopropylpropylamino) -1-(p-hydroxyphenyl)-1-ethanol], the Emax at 10 µM in the assay with L6-myotubes [1] (setting [3]) was over 75%; in the assay on L6-myotubes [2] (setting [4]), under 25%.

For the molecule `COc1ccc(C[C@H]2CC[C@H]([C@H](O)c3cccc(F)c3)N2)cc1` [Compound 374, (R)-{(2R,5R)-5-[(p-methoxyphenyl)methyl]-2-pyrrolidinyl}(m-fluorophenyl)methanol], the Emax at 10 µM with L6-myotubes [1] (setting [5]) was over 75%; with L6-myotubes [2] (setting [6]) it was under 25%.

`CC(=O)N[C@H]1CC[C@H](CC(C)(C)NC[C@H](O)c2cncc(F)c2)CC1` [Compound 357]: the Emax at 10 µM in the assay on L6-myotubes [1] (setting [5]) is over 75%; with L6-myotubes [2] (setting [6]), under 25%.

Take `CS(=O)(=O)N[C@H]1CC[C@@H](C[C@@H]2CC[C@H]([C@@H](O)c3cccc(F)c3)N2)CC1` [Compound 511]: the Emax at 10 µM is 25 to 50% in the assay on L6-myotubes [1] (setting [5]) and under 25% in the assay on L6-myotubes [2] (setting [6]).

As to `CC1(C)CCC([C@H](O)c2ccccc2F)N1` (stereo in doubt) [Compound 175, (R)-[(R)-5,5-dimethyl-2-pyrrolidinyl](o-fluorophenyl)methanol], the Emax at 10 µM with L6-myotubes [1] (setting [3]) was over 75%; with L6-myotubes [2] (setting [4]), 25 to 50%.

On to `CC1(C)CC[C@H]([C@@H](O)c2cc(F)c(N)c(F)c2)N1` [Compound 236], for which the Emax at 10 µM in the assay with L6-myotubes [1] (setting [5]) is over 75%; in the assay on L6-myotubes [2] (setting [6]), 25 to 50%.

As to `CS(=O)(=O)N[C@H]1CC[C@@H](CNC[C@H](O)c2cccc(F)c2)CC1` [Compound 312, (R)-1-(m-fluorophenyl)-2-({[(1s,4S)-4-(mesylamino)cyclohexyl]methyl}amino)-1-ethanol], the Emax at 10 µM was 50 to 75% with L6-myotubes [1] (setting [5]) and under 25% with L6-myotubes [2] (setting [6]).

`O[C@@H](CNC1(C(F)(F)F)CC1)c1cccc(F)c1` [Compound 118, (R)-1-(m-fluorophenyl)-2-[1-(trifluoromethyl)cyclopropylamino]-1-ethanol]: the Emax at 10 µM with L6-myotubes [1] (setting [3]) is 50 to 75%; in the assay with L6-myotubes [2] (setting [4]), under 25%.

Take `CS(=O)(=O)N(Cc1ccccc1)c1ccc(CC23CCC([C@H](O)c4cccc(F)c4)(CC2)N3)cc1` [Compound 473]: the Emax at 10 µM in the assay on L6-myotubes [1] (setting [5]) is 25 to 50%; in the assay on L6-myotubes [2] (setting [6]) it was under 25%.

Take `CN(C)C(=O)N[C@H]1CC[C@H](CC(C)(C)NC[C@H](O)c2cccc(F)c2)CC1` [Compound 430, (R)-2-{1,1-dimethyl-2-[(1r,4R)-4-(3,3-dimethylureido)cyclohexyl]ethylamino}-1-(m-fluorophenyl)-1-ethanol]: the figures for the Emax at 10 µM in the assay with L6-myotubes [1] (setting [5]) and with L6-myotubes [2] (setting [6]) were over 75% and 50 to 75%, respectively.

Regarding `CC12CC(C1)[C@@H]([C@@H](O)c1cccc(F)c1)N2` [Compound 189], the Emax at 10 µM with L6-myotubes [1] (setting [3]) is 50 to 75%; in the assay on L6-myotubes [2] (setting [4]) it was under 25%.

As to `CC1(C)C[C@@H]([C@H](O)c2cccc(F)c2)N1` [Compound 200, (R)-[(S)-4,4-dimethyl-2-azetidinyl](m-fluorophenyl)methanol], the Emax at 10 µM in the assay on L6-myotubes [1] (setting [5]) and with L6-myotubes [2] (setting [6]) was under 25% each time.

As to `CO[C@H]1CC[C@H](CC(C)(C)NC[C@H](O)c2cccc(F)c2)CC1` [Compound 249, (R)-2-{1,1-dimethyl-2-[(1r,4R)-4-methoxycyclohexyl]ethylamino}-1-(m-fluorophenyl)-1-ethanol], the Emax at 10 µM in the assay on L6-myotubes [1] (setting [5]) was over 75%; in the assay with L6-myotubes [2] (setting [6]), under 25%.

Turning to `CCCCNC[C@H](O)c1cccc(O)c1F` [Compound 87, (R)-2-(butylamino)-1-(2-fluoro-3-hydroxyphenyl)-1-ethanol], the Emax at 10 µM was over 75% with L6-myotubes [1] (setting [3]) and 25 to 50% in the assay on L6-myotubes [2] (setting [4]).

Regarding `CCC[C@@H]1CC[C@H]([C@@H](O)c2cccc(O)c2)N1` [Compound 127, m-{(S)-[(2R,5R)-5-propyl-2-pyrrolidinyl] hydroxymethyl}phenol], in the assay with L6-myotubes [1] (setting [3]), the “Biological example 2 (GU)” value was “+ (if it is between 50 and 25% it is denoted with +)”. For the same molecule, the “Biological example 3 (CAMP)” value in the assay on L6-myotubes [2] (setting [4]) is “− (if it less than 25% it is denoted with −)”.

Consider `CCCCNCC(O)c1cccnc1` (centres unmarked) [Compound 49, 2-(butylamino)-1-(3-pyridyl)-1-ethanol], for which the Emax at 10 µM in the assay with L6-myotubes [1] (setting [3]) was 50 to 75%; with L6-myotubes [2] (setting [4]), under 25%.
